Experimental data from article PMC4468608, “A distinct p53 target gene set predicts for response to the selective p53–HDM2 inhibitor NVP-CGM097” (eLife, 2015).

How the values were obtained:
Assay in all cases: Repeat cell proliferation assay
Type in all cases: cell-based
Hs 294T = conditions: Homo sapiens, Hs 294T (TP53 mutated)
Description: (§1) Cell lines were partitioned into sensitive and insensitive groups based on compound potency (IC50). […] Forty seven cell lines were categorized as sensitive and 309 cell lines as insensitive. For the sensitive cell lines, the maximal compound effect level (Amax) was ≤ −50% (Figure 1C,D, Figure 1—source data 1).

KBMC-2 = conditions: Homo sapiens, KBMC-2 (TP53 mutated)
Description: as §1

P12-ICHIKAWA = conditions: Homo sapiens, P12-[…] (TP53 mutated)
Description: as §1

Measured: IC50

COc1cc2c(cc1OC(C)C)[C@H](c1ccc(Cl)cc1)N(c1ccc(N(C)C[C@H]3CC[C@H](N4CCNC(=O)C4)CC3)cc1)C(=O)C2 [NVP-CFC218]
> 8 µM: all assays above
